Reference: PubChem BioAssay AID1963875 (Molecular Pharmacology Branch, DTP, NCI, 2024)

System: KRAS-mutant PDC complex spheroid viability
Test: Anticancer human tumor 186277-243-T-J2-PDC patient-derived colon adenocarcinoma cell line growth inhibition [KRAS2]
Conditions: for viability, T/C: stronger effect = lower value
Method in brief: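 Combination screen of spheroid viability in tumor-cell co-cultures with endothelial (HUVEC) and mesenchymal stem cell stroma. Each agent was tested in half-log dilutions, topping at clinical Cmax or at 10 microM without a known Cmax.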

[1] = curve of first compound, second compound 0.1 µM
[2] = curve of first compound, second compound 0.316 µM
[3] = curve of first compound, second compound 1 µM
[4] = curve of first compound, second compound 3.16 µM
[5] = curve of first compound, second compound 10 µM
[6] = second compound 0.1 µM, first compound 0.0316 µM
[7] = second compound 0.316 µM, first compound 0.0316 µM
[8] = second compound 1 µM, first compound 0.0316 µM
[9] = second compound 3.16 µM, first compound 0.0316 µM
[10] = second compound 10 µM, first compound 0.0316 µM
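Wherever viability, T/C is given: viability read after seven days of compound exposure; 100% = DMSO vehicle-treated spheroids so lower means less viable.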

Structure (SMILES): CC(=O)Nc1cccc(-n2c(=O)n(C3CC3)c(=O)c3c(Nc4ccc(I)cc4F)n(C)c(=O)c(C)c32)c1 + COc1cc2nc(C)nc(NC(C)c3cc(N)cc(C(F)(F)F)c3)c2cc1OC1CCOC1
- IC50 [1]: 0.458 nM
- IC50 [2]: 0.343 nM
- IC50 [3]: 0.298 nM
- IC50 [4]: 0.226 nM
- IC50 [5]: < 0.1 nM
- viability, T/C (second compound 0.1 µM, first compound 0.0001 µM): 116%
- viability, T/C (second compound 0.1 µM, first compound 0.000316 µM): 68.2%
- viability, T/C (second compound 0.1 µM, first compound 0.001 µM): 11.4%
- viability, T/C (second compound 0.1 µM, first compound 0.00316 µM): 4.55%
- viability, T/C (second compound 0.1 µM, first compound 0.01 µM): 1.94%
- viability, T/C [6]: 1.13%
- viability, T/C (second compound 0.316 µM, first compound 0.0001 µM): 108%
- viability, T/C (second compound 0.316 µM, first compound 0.000316 µM): 53%
- viability, T/C (second compound 0.316 µM, first compound 0.001 µM): 10.2%
- viability, T/C (second compound 0.316 µM, first compound 0.00316 µM): 3.15%
- viability, T/C (second compound 0.316 µM, first compound 0.01 µM): 2.07%
- viability, T/C [7]: 1.01%
- viability, T/C (second compound 1 µM, first compound 0.0001 µM): 118%
- viability, T/C (second compound 1 µM, first compound 0.000316 µM): 46.3%
- viability, T/C (second compound 1 µM, first compound 0.001 µM): 8.75%
- viability, T/C (second compound 1 µM, first compound 0.00316 µM): 4.43%
- viability, T/C (second compound 1 µM, first compound 0.01 µM): 1.55%
- viability, T/C [8]: 1.02%
- viability, T/C (second compound 3.16 µM, first compound 0.0001 µM): 108%
- viability, T/C (second compound 3.16 µM, first compound 0.000316 µM): 26%
- viability, T/C (second compound 3.16 µM, first compound 0.001 µM): 6.24%
- viability, T/C (second compound 3.16 µM, first compound 0.00316 µM): 2.83%
- viability, T/C (second compound 3.16 µM, first compound 0.01 µM): 1.04%
- viability, T/C [9]: 0.82%
- viability, T/C (second compound 10 µM, first compound 0.0001 µM): 13.9%
- viability, T/C (second compound 10 µM, first compound 0.000316 µM): 3.04%
- viability, T/C (second compound 10 µM, first compound 0.001 µM): 1.39%
- viability, T/C (second compound 10 µM, first compound 0.00316 µM): 0.49%
- viability, T/C (second compound 10 µM, first compound 0.01 µM): 0.21%
- viability, T/C [10]: 0.23%

Structure (SMILES): CC1(C)CCC(CN2CCN(c3ccc(C(=O)NS(=O)(=O)c4ccc(NCC5CCOCC5)c([N+](=O)[O-])c4)c(Oc4cnc5[nH]ccc5c4)c3)CC2)=C(c2ccc(Cl)cc2)C1
- viability, T/C (compound 0.0316 µM): 97.6% [middle of 5 runs]
- viability, T/C (compound 0.1 µM): 93.7% [middle of 5 runs]
- viability, T/C (compound 0.316 µM): 104% [middle of 5 runs]
- viability, T/C (compound 1 µM): 98.1% [middle of 5 runs]
- viability, T/C (compound 3.16 µM): 22.7% [middle of 5 runs]
- viability, T/C (compound 10 µM): 4.85% [middle of 5 runs]
- IC50 (curve of compound): 2.07 µM [middle of 5 runs]

Structure (SMILES): Cn1nccc1Nc1nccc(-c2cc3c(s2)C(C)(C)N(CCN2CCOCC2)C3=O)n1 + COc1cc2nc(C)nc(NC(C)c3cc(N)cc(C(F)(F)F)c3)c2cc1OC1CCOC1
- IC50 [1]: 266 nM
- IC50 [2]: 301 nM
- IC50 [3]: 220 nM
- IC50 [4]: 193 nM
- IC50 [5]: 75.7 nM
- viability, T/C [6]: 90.7%
- viability, T/C (second compound 0.1 µM, first compound 0.1 µM): 105%
- viability, T/C (second compound 0.1 µM, first compound 0.316 µM): 41.4%
- viability, T/C (second compound 0.1 µM, first compound 1 µM): 9.64%
- viability, T/C (second compound 0.1 µM, first compound 3.16 µM): 5.24%
- viability, T/C (second compound 0.1 µM, first compound 10 µM): 5.34%
- viability, T/C [7]: 93.1%
- viability, T/C (second compound 0.316 µM, first compound 0.1 µM): 97.9%
- viability, T/C (second compound 0.316 µM, first compound 0.316 µM): 48%
- viability, T/C (second compound 0.316 µM, first compound 1 µM): 9%
- viability, T/C (second compound 0.316 µM, first compound 3.16 µM): 4.51%
- viability, T/C (second compound 0.316 µM, first compound 10 µM): 4.67%
- viability, T/C [8]: 92.2%
- viability, T/C (second compound 1 µM, first compound 0.1 µM): 100%
- viability, T/C (second compound 1 µM, first compound 0.316 µM): 28.7%
- viability, T/C (second compound 1 µM, first compound 1 µM): 6.92%
- viability, T/C (second compound 1 µM, first compound 3.16 µM): 3.64%
- viability, T/C (second compound 1 µM, first compound 10 µM): 4.79%
- viability, T/C [9]: 91.6%
- viability, T/C (second compound 3.16 µM, first compound 0.1 µM): 85.6%
- viability, T/C (second compound 3.16 µM, first compound 0.316 µM): 23.2%
- viability, T/C (second compound 3.16 µM, first compound 1 µM): 7.66%
- viability, T/C (second compound 3.16 µM, first compound 3.16 µM): 4.43%
- viability, T/C (second compound 3.16 µM, first compound 10 µM): 4.37%
- viability, T/C [10]: 86.1%
- viability, T/C (second compound 10 µM, first compound 0.1 µM): 38.5%
- viability, T/C (second compound 10 µM, first compound 0.316 µM): 4.06%
- viability, T/C (second compound 10 µM, first compound 1 µM): 1.74%
- viability, T/C (second compound 10 µM, first compound 3.16 µM): 0.34%
- viability, T/C (second compound 10 µM, first compound 10 µM): 0.22%

Structure (SMILES): Cn1nccc1Nc1nccc(-c2cc3c(s2)C(C)(C)N(CCN2CCOCC2)C3=O)n1
- viability, T/C (compound 0.0316 µM): 101% [middle of 5 runs]
- viability, T/C (compound 0.1 µM): 90.8% [middle of 5 runs]
- viability, T/C (compound 1 µM): 16% [middle of 5 runs]
- viability, T/C (compound 3.16 µM): 6.29% [middle of 5 runs]
- viability, T/C (compound 10 µM): 6.23% [middle of 5 runs]
- IC50 (curve of compound): 383 nM [middle of 5 runs]
